Test results as given in PubChem BioAssay (NCI).
Values joined by “and” are separate entries in the source; they are usually repeats but may differ in a detail not shown here. Equal values may be shown once.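 The compound was tested at five concentrations on cells cultured in 96-well plates, with a 48-hour exposure period. GI50 marks 50% less growth. TGI: concentration producing complete growth inhibition.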

What was measured:
Experiment in all cases: NCI anticancer screen, dose series, 48 h
HCT-15 colon = system: HCT-15 colon
UO-31 renal = system: UO-31 renal
OVCAR-5 ovarian = system: OVCAR-5 ovarian
IGROV1 ovarian = system: IGROV1 ovarian
SF-268 CNS = system: SF-268 CNS
MALME-3M melanoma = system: MALME-3M melanoma
ACHN renal = system: ACHN renal
M14 melanoma = system: M14 melanoma
SR leukemia = system: SR leukemia
NCI/ADR-RES ovarian = system: NCI/ADR-RES ovarian

Row | Structure (SMILES) | TGI (HCT-15 colon) [µM] | TGI (UO-31 renal) [µM] | TGI (OVCAR-5 ovarian) [µM] | TGI (IGROV1 ovarian) | TGI (SF-268 CNS) | TGI (MALME-3M melanoma) | TGI (ACHN renal) | TGI (M14 melanoma) | GI50 (HCT-15 colon) [nM] | GI50 (SF-268 CNS) [nM] | GI50 (MALME-3M melanoma) [µM] | GI50 (ACHN renal) [µM] | TGI (SR leukemia) [µM] | GI50 (M14 melanoma) [nM] | TGI (NCI/ADR-RES ovarian) [µM] | GI50 (UO-31 renal) [µM] | GI50 (OVCAR-5 ovarian) [µM] | GI50 (IGROV1 ovarian) [µM] | GI50 (NCI/ADR-RES ovarian) [µM] | GI50 (SR leukemia) [µM]
1 | C#CCOCn1cnc2c(=S)nc[nH]c21 | > 100 | > 100 | > 100 | > 100 µM | > 100 µM | > 100 µM | > 100 µM | > 100 µM |  |  |  |  |  |  |  |  |  |  |  | 
2 | C/C=C/C=N/N(C(=O)c1cc([N+](=O)[O-])cc([N+](=O)[O-])c1)C1=NC(c2ccccc2)C(c2ccccc2)=NN1 (centres undefined) | > 100 | > 100 | > 100 | > 100 µM | > 100 µM | 75.2 µM | > 100 µM | > 100 µM |  |  |  |  |  |  |  |  |  |  |  | 
3 | COc1cc2ccc3c4c(OC)cc(OC)c(OC)c4c(=O)n(C)c3c2cc1OC |  | > 48.9 | 23.1 | 16.7 µM and > 45.6 µM | 10.7 µM and > 21.2 µM | 16.7 µM and > 49.6 µM | 16.7 µM and > 44.7 µM | 7.91 µM and > 33.9 µM | 1870 | 1130 | 13.4 | 4.88 | 2.97 | 2280 |  |  |  |  |  | 
4 | COC(=O)C(C(=O)C(=O)Nc1ccccc1C(C)=O)c1nc2ccc(Cl)cc2[nH]c1=O (centres undefined) | > 100 | > 100 | > 100 | > 100 µM | > 100 µM | > 100 µM | > 100 µM | > 100 µM |  |  |  |  |  |  |  |  |  |  |  | 
5 | CCC1=C(C)/C(=C/c2[nH]c(CBr)c(CC)c2C)N=C1CBr | 27.2 | 15.8 |  | 38.1 µM | 36.8 µM | 41 µM |  | 33.1 µM |  |  |  |  |  |  |  |  |  |  |  | 
6 | Cc1c(C(=O)CC(=O)C(=O)Nc2ccc(Cl)c(Cl)c2)[n+](=O)c2ccccc2n1[O-] | 48.2 | > 100 | 86.4 | 50.8 µM | 85.2 µM | 36.5 µM | > 100 µM | 36.5 µM |  |  |  |  |  |  |  |  |  |  |  | 
7 | ClC1CCC2OOC1O2 (centres undefined) | > 100 | > 100 | > 100 | > 100 µM | > 100 µM | > 100 µM | > 100 µM | > 100 µM |  |  |  |  | > 100 |  |  |  |  |  |  | 
8 | Nc1ncnc2c1nc(-c1ccccc1)n2C1OC(CO)C(O)C1O (centres undefined) | > 100 | > 100 | > 100 | > 100 µM | > 100 µM |  | > 100 µM | > 100 µM |  |  |  |  | > 100 |  | > 100 |  |  |  |  | 
9 | COc1ccc(NC(=O)C(=O)C2CNC(=O)NC2=O)c(OC)c1 (centres undefined) | > 100 | > 100 | > 100 | > 100 µM | > 100 µM | > 100 µM | > 100 µM | > 100 µM |  |  |  |  | > 100 |  |  |  |  |  |  | 
10 | COC(=O)C1=CN=C(C(=O)OC)NN1 | > 100 | > 100 |  | > 100 µM | > 100 µM | > 100 µM | > 100 µM | > 100 µM |  |  |  |  | > 100 |  |  |  |  |  |  | 
11 | CC(=O)OCc1cc(OC(C)=O)cnc1COC(C)=O | > 100 | > 100 | > 100 | > 100 µM | > 100 µM | > 100 µM | > 100 µM | > 100 µM |  |  |  |  | > 100 |  |  |  |  |  |  | 
12 | COc1ccc(C(c2ccc(C(C)C)cc(=O)c2O)c2ccc3cccnc3c2O)cc1 (centres undefined) | 14.5 | 1.78 | 6.32 | 15.3 µM | 10.4 µM | 17.5 µM | 7.53 µM | 3.06 µM |  |  |  |  | 15.9 |  |  |  |  |  |  | 
13 | C[C@@H](CO)OCOCc1ccccc1 | > 100 | > 100 |  | > 100 µM | > 100 µM | > 100 µM |  | > 100 µM |  |  |  |  |  |  |  |  |  |  |  | 
14 | N.N.N.N.N.N.[I-].[Os] | > 100 | > 100 | > 100 | > 100 µM | > 100 µM | 96.5 µM | > 100 µM | > 100 µM | > 100000 | > 100000 | 38.9 | > 100 |  | > 100000 |  | > 100 | > 100 | > 100 |  | 
15 | Cc1ccc([N+](=O)[O-])cc1NC(=O)C(=O)Cc1occc(=O)c1O | > 100 | > 100 | > 100 | > 100 µM | > 100 µM |  | > 100 µM |  |  |  |  |  | > 100 |  |  |  |  |  |  | 
16 | Cc1ccc(S(=O)(=O)/N=c2\ssc(Nc3ccccc3)c2Cl)cc1 | 34.4 | > 50 | > 50 | > 50 µM | 21.8 µM |  | 22.5 µM | > 50 µM | 11900 | 6830 |  | 9.58 | 25.1 | 22800 | 27.6 | 21.3 | 21.1 | 30.9 | 10.1 | 9.06
17 | CC1(C)OC(C(N)=O)=C(C(N)=O)O1 | > 100 | > 100 | > 100 | > 100 µM | > 100 µM | > 100 µM | > 100 µM | > 100 µM |  |  |  |  | > 100 |  |  |  |  |  |  | 
18 | O=C(/C=C\c1cccc2ccccc12)c1cccs1 | 13.8 | 25.6 | 32.8 | 23.3 µM | 26.1 µM | 25.1 µM | 24.1 µM | 28.3 µM |  |  |  |  |  |  |  |  |  |  |  | 
19 | Cc1c2c(nn1C(=O)c1nn(-c3ccc(Cl)cc3)cc1O)-c1ccccc1CC2 | > 100 | > 100 | > 100 | > 100 µM | > 100 µM | > 74 µM | > 100 µM | > 45.5 µM | 49.6 | 46.9 | 0.328 | 0.0456 |  | 84.2 | > 100 | 0.0603 | 0.0723 | 0.0429 | 0.0495 | 
20 | CN(C)C(=O)/N=c1\ss/c(=N\C(=S)N(C)C)n1-c1ccccc1 | > 100 | > 100 | > 100 | > 100 µM | > 100 µM | > 100 µM | > 100 µM | > 74.5 µM |  | 389 |  |  | > 100 |  |  |  |  |  |  | 
21 | O=C(O)c1ccc(O)c(N=Nc2cc(S(=O)(=O)O)c3ccccc3c2O)c1 | > 10 | > 100 | > 100 | > 100 µM | > 10 µM | > 100 µM | > 100 µM |  |  |  |  |  | > 100 |  |  |  |  |  |  | 
